Assay results reported in patent US11512262B2, “Azaphenothiazines and azaphenoxazines as antioxidants” (University of Ottawa, priority 2017, dated 2022).

Assay: hexadecane/PBD-BODIPY co-autoxidation, inhibition by antioxidant
Conditions: hexadecane/PBD-BODIPY co-autoxidations at 70° C. in PhCl
Method: FIG. 1 is a graph depicting co-autoxidation of 2.8M hexadecane and 10 μM PBD-BODIPY at 70° C. in PhCl, initiated by 87 mM tBu2O2, and inhibited by 0.6 μM 1, 2, or 9.
Table 1. […] Relative to other antioxidants, autoxidation was inhibited poorly in the catalytic phase. Dye consumption prevented accurate determination of the stoichiometry.

Row | SMILES | Inhibition rate constant kinh | Stoichiometry n | Turnover in the catalytic phase (footnote a to n)
1 | c1ccc2c(c1)Nc1ccncc1O2 [Compound 3, 3-Azaphenoxazine] | (1.3 ± 0.2) × 10^5 M^−1s^−1 | 183 ± 8 | –
2 | c1ccc2c(c1)Nc1ccncc1S2 [Compound 4, 3-Azaphenothiazine] | (5.9 ± 0.5) × 10^5 M^−1s^−1 | 46 ± 3 | –
3 | c1ccc2c(c1)Nc1nc(N3CCCC3)ncc1S2 [Compound 8, 2-(Pyrrolidn-1-yl)-1,3-Diazaphenothiazine] | (2.6 ± 0.1) × 10^5 M^−1s^−1 | 6 ± 0.1 | –
4 | CCN(CC)c1ncc2c(n1)Nc1ccccc1S2 [Compound 7, 2-Diethylamino-1,3-Diazaphenothiazine] | (2.0 ± 0.1) × 10^5 M^−1s^−1 | 4 ± 0.4 | –
5 | CCN(CC)c1ncc2c(n1)Nc1ccccc1S2 [Compound 10, 2-Diethylamino-1,3-Diazaphenothiazine] | (2.4 ± 0.4) × 10^6 M^−1s^−1 | 11 ± 0.7 | –
6 | c1ccc2c(c1)Nc1ncccc1O2 [Compound 1, 1-Azaphenoxazine] | (6.8 ± 0.2) × 10^5 M^−1s^−1 | 50 ± 1 | –
7 | c1ccc2c(c1)Nc1ncccc1S2 [Compound 2, 1-Azaphenothiazine] | (2.8 ± 0.1) × 10^5 M^−1s^−1 | 10 ± 2 | –
8 | CCCCCCCc1nc(C)c2c(n1)Nc1ccccc1S2 [Compound 6, 2-Heptyl-4-methyl-1,3-Diazaphenothiazine] | (3.3 ± 0.2) × 10^5 M^−1s^−1 | – | Inefficient turnover
9 | CCCCCCCc1nc(C)c2c(n1)Nc1ccccc1O2 [Compound 5, 2-Heptyl-4-methyl-1,3-Diazaphenoxazine] | (9.0 ± 0.3) × 10^5 M^−1s^−1 | 109 ± 4 | –
10 | COc1ccc2c(n1)Sc1cccnc1N2 [Compound 9, 3-Methoxy-4,9-Diazaphenothiazine] | (5.6 ± 0.3) × 10^5 M^−1s^−1 | 15 ± 2 | –
